Measured values: a melting point compilation (Tetko et al.; mined from patent text by program, amines drawn as free bases though some values may be those of a salt)

| SMILES | melting point [°C] |
| --- | --- |
| CCCc1c(OCCCSc2c(C(C)C)nn3ccccc23)ccc(C(C)=O)c1O | 95 to 95.5 |
| C=CCc1c(OC)ccc(-c2cc(-c3ccc(Cl)cc3)n(-c3ccc(OC)cc3)n2)c1OC | 44 to 46 |
| CCSc1cc(C(=O)O)cc(N)c1Oc1ccccc1 | 154 to 155 |
| CCOP(=O)(OCC)N1C(=O)[C@@H](NC(=O)OC(C)(C)C)[C@@H]1C | 101 to 104 |
| CC(C)(CO)CCCC(O)CCC(O)CCCC(C)(C)CO (configuration not stated) | 96 to 97 |
| N#Cc1ccc(-c2cnco2)cc1 | 140 |
| CCOCc1nc2nccnc2c(=O)[nH]1 | 168 to 169 |
| COc1cc(OC)nc(NC(=O)NS(=O)(=O)c2ccccc2OC(F)(F)F)n1 | 170 |
| O=C1CC(c2ccc(Cl)cc2)CO1 (configuration not stated) | 52 to 54 |
| COc1ccc(-c2n[nH]c(=O)c3cc(OC)ccc23)cc1 | 245 |
| CCOC(=O)c1[nH]c2ccc(F)cc2c1N | 77 to 78 |
| COc1ccccc1OCC(O)CN1CCC(N2CCN(c3ccc(Cl)cc3)C2=O)CC1 (configuration not stated) | 136 to 137 |
| COCC1CCCN1S(=O)(=O)c1ccc2c(c1)C1(OCCCO1)C(=O)N2CCC#N (configuration not stated) | 138 to 141 |
| O=C(NCCSCc1cccc([N+](=O)[O-])c1)c1c(Cl)cccc1Cl | 76 to 78 |
| CC(O)c1c(NC(=O)C(C)(C)C)cccc1C(F)(F)F (configuration not stated) | 172 |
| O=C(CCl)CCc1ccc(Cl)cc1 | 65 to 67 |
| CCCCCCCCCCc1ccc(-c2ccc(OC)c(F)c2)cc1 | 102 |
| N#CNC1NN=C(c2ccc3ccccc3c2)S1 (configuration not stated) | > 260 |
| O=c1c2nc[nH]c2nc2n1CCN2Cc1ccc(Cl)cc1 | 314 to 316 |
| C=CCNc1nc(NCC=C)nc(N2CCN(C(=O)NCC(c3ccccc3)c3ccccc3)CC2)n1 | 90 to 92 |
| Cc1nc2ccccn2c1Cc1ccc(C(=O)O)cc1 | 217 |
| CS(=O)c1cccc(S(N)(=O)=O)c1 (configuration not stated) | 217 to 221 |
| c1ccc(-c2ccc3nc4c(nc3c2)-c2cccc3cccc-4c23)cc1 | 194 to 195 |
| CCc1nnc(N2N=C(c3ccc([N+](=O)[O-])cc3)c3cc4c(cc3C[C@H]2C)OCO4)s1 | 105 |
| Cc1ccc(-c2cn(C)cc(-c3ccccc3)c2=O)cc1C | 108 to 111 |
| COC(=O)CC[C@H](NC(=O)c1cc(CCC2CNc3nc(N)nc(O)c3C2)c[nH]1)C(=O)OC (some centres not stated) | 151 to 153 |

| SMILES | melting point [°C] |
| --- | --- |
| NC(=O)CNC(=O)c1cccc(-c2cccc3nc(Oc4cccc(C(F)(F)F)c4)sc23)c1 | 203 to 204 |
| N#CC1(c2ccccc2)C2CC3CC(C2)CC1C3 (configuration not stated) | 120 to 122 |
| CC(Cc1c[nH]c2ccccc12)(NC(=O)OC1C2CC3CC(C2)CC1C3)C(=O)NC(CN=[N+]=[N-])Cc1ccccc1 (configuration not stated) | 77 to 78 |
| Nc1nc2c(s1)CC(CN1CCN(c3ccccn3)CC1)CC2 (configuration not stated) | 177 to 179 |
| O=C(O)c1ccccc1N1CCN(c2cccc(C(F)(F)F)c2)C1=O | 197 to 198 |
| CN(C)CCC1CCCCN1CC(=O)N1c2ccccc2NC(=O)c2ccccc21 (configuration not stated) | 155 to 157 |
| CCOC(CN1C(=O)C2=C(c3cccs3)N(CC(OCC)OCC)C(=O)C2=C1c1cccs1)OCC | 167 to 169 |
| CSC1NC(=O)N(C2CCCCC2)C(=O)N1N=C(C)C (configuration not stated) | 111 to 112 |
| O=C(c1cccc(Nc2ncnc3ccccc23)c1)N1CCN(c2ncc(Cc3ccccc3)cn2)CC1 | 120 to 122 |
| O=C(Nc1ccc2c(c1)C(O)CC2)C(F)(F)F (configuration not stated) | 123 to 124 |
| Cc1c(CCCCCCC(=O)O)cccc1C(=O)c1ccc(Cl)cc1 | 84 |
| COC(=O)C1(C(=O)OC)CN(C(=O)OC(C)(C)C)c2cc([N+](=O)[O-])ccc21 | 132 |
| NC(=O)c1sc(Nc2ccc(Cl)cc2)c2c1CCc1cnoc1-2 | 224 to 225 |
| COc1ccc2c(c1)CCC2=NNS(=O)(=O)c1ccc(C)cc1 | 195 to 196 |
| O=C(Nc1ccccc1)NC1C(=O)N(CC2C3CC4CC(C3)CC2C4)c2ccccc2N(c2ccccc2)C1=O (configuration not stated) | 192 to 193 |
| NNC(=O)c1ccc(OCc2ccccc2)c(Cl)c1 | 168 to 171 |
| COc1ccc2c(=O)c3[nH]c(C(=O)O)cc(=O)c3oc2c1 | 253 to 254 |
| COc1ccccc1C(=O)c1cccc([N+](=O)[O-])c1 | 94 |
| CS(=O)(=O)c1ccc(Oc2ccc(C(=O)c3ccccc3)cc2)cc1 | 164 to 165 |
| COCc1cc2c(N=C=S)cccc2cn1 | 88 |
| Cc1ccccc1SN(C)C(=O)Oc1cccc2c1OC(C)(C)C2 | 78 |
| O=C(Nc1ncc(C(=O)NCCO)s1)c1cn(Cc2ccc(Cl)c(Cl)c2)nn1 | 275 |
| Cc1csc2nc3c(c(NC(=O)CN4C(=O)NC(=O)[C@@H]4C)c12)CCCC3 | 273 to 277 |
| CC1(Cc2ccc(OCc3ccccc3)cc2)OCCO1 | 58 to 62 |
| Cc1oc(-c2ccco2)nc1COc1ccc(COc2nn(-c3ccccc3)cc2CO)cc1 | 113 to 114 |
| Cc1nc(-c2cccc([N+](=O)[O-])c2)sc1C(=O)O | 235 to 236 |
